From US20130102683A1, “MELT-GRANULATED FINGOLIMOD” (RATIOPHARM GMBH, priority 2010, published 2013)
Structures can show the parent of a compound that is named as a salt.

Assay: Water adsorption of fingolimod salts under set atmospheric humidity (hygrostat)
Type: physicochemical
Conditions: atmospheric humidity set at 75% by means of a hygrostat; after 2 weeks
Text: In addition, experiments on various salts of fingolimod have shown that depending on the ambient conditions, the possibility of water adsorption exists. […] Water adsorption on this scale is detrimental to the storage stability of dosage forms containing fingolimod, especially in the case of tablets, granules or powders.

CCCCCCCCc1ccc(CCC(N)(CO)CO)cc1 [hydrochloride of fingolimod]
increase of water content: 7 fold
